# Assay results as given in PMC6362038, “Secondary structures and cell-penetrating abilities of arginine-rich peptide foldamers” (Scientific Reports, 2019).
# Peptide text beside a SMILES is read from it. * marks the point of attachment. 5FAM = O=C1OC2(c3ccc(O)cc3Oc3cc(O)ccc32)c2ccc(C(=O)*)cc21
# Columns and labels:
# [1] = Resistance to protease digestion with trypsin; format: in vitro ADME; details: 10 µM peptide in 2.5 × 10^−6 w/v% trypsin/PBS, 37 °C, RP-HPLC, α-CHCA internal standard, read-out: intact peptide after incubation with trypsin
# From the text: (§1) Next, we examined the stability of peptides against protease digestion using trypsin (Fig. 4a) and pronase (Fig. 4b). One of the advantages of peptide foldamers containing dAAs is their high resistance to degradation by proteases[38]–[40]. Trypsin is a serine protease that cleaves amide bonds at the C terminus of cationic amino acids such as Arg and lysine. Pronase is a non-specific protease mixture produced in the culture supernatant of Streptomyces griseus. Ac5c, Ac5c^dOM, (αMe)Leu, and Leu peptides were incubated with trypsin or pronase for 1, 2, and 4 h, and then rate of intact peptide was evaluated by RP-HPLC using α-cyano-4-hydroxycinnamic acid (α-CHCA) as an internal standard. Leu peptide was promptly degraded by both trypsin and pronase, and reached 0% intact peptide after 4 h incubation in a similar manner to Arg peptide reported previously[24],[25]. On the other hand, approximately 80% of Ac5c, Ac5c^dOM, and (αMe)Leu peptides remained intact even after 4 h incubation. Introduction of dAAs into peptides markedly elevated resistance to protease digestion, whether or not peptides formed stable helical structures. In other words, peptides composed of only natural α-amino acids were easily degraded by proteases independently of their peptide secondary structures.
# (§2) One-hundred microliters of peptide solution (10 µM) in 2.5 × 10^−6 w/v% trypsin or pronase/phosphate buffer saline (PBS) was incubated at 37 °C for 0, 1, 2, and 4 h. After each incubation time, 250 µL of 1% TFA/PBS solution was added to inactivate the proteases, and 50 µL of 1/2 diluted saturated α-CHCA solution was added as an internal standard, followed by HPLC analysis, which was performed using the above-mentioned conditions.
# [2] = Resistance to protease digestion with pronase; format: in vitro ADME, Streptomyces griseus; details: 10 µM peptide in 2.5 × 10^−6 w/v% pronase/PBS, 37 °C, RP-HPLC, α-CHCA internal standard, read-out: intact peptide after incubation with pronase
# From the text: as §1, §2
# [3] = tested on: HeLa cells; assay: Cellular uptake of CF-labeled peptides into HeLa cells (flow cytometry); format: cell-based; details: 1 µM peptide, 2, 6 and 24 h, DMEM 10% FBS, heparin wash, trypsinized, flow cytometry fluorescence, mean of n = 3
# Protocol: Cellular uptake of peptides was assessed against HeLa (Fig. 5a) and CHO-K1 cells (Fig. 5b) at a concentration of 1 µM and various incubation times (2, 6, and 24 h). […] Not only stabilities against protease digestion but also other factors might contribute to prolongation of the cell-penetrating ability of peptides. […] The number of Arg residues in Arg-rich peptides is very important for their cell-penetrating ability, and six Arg are not enough. […] Substitution of Arg in Arg peptide with Ac5c, Ac5c^dOM, or (αMe)Leu positively affected its cell-penetrating ability compared with Aib. In comparison, among the peptides containing dAAs, (αMe)Leu peptide was the best for HeLa cell, Ac5c peptide was the best for CHO-K1 cell, and Ac5c^dOM peptide was the worst for both cell types (Fig. 5). Although the best peptides were different depending on cell type, the worst peptide was same for both cell types. […] Taken together, a stable helical structure by introducing dAAs into Arg-rich peptide enhanced their cell-penetrating abilities.
# HeLa or CHO-K1 cells were seeded on 24-well culture plates (100,000 cells/well) and incubated in 400 µL of DMEM containing 10% FBS. The medium was then replaced with fresh medium, and a peptide solution was added to each well at a concentration of 1 µM. After each incubation time, the medium was removed and cells were washed with ice-cold PBS with heparin (20 units/mL) and trypsinized. After the addition of medium containing 10% FBS, fluorescence intensity was detected and acquired using an On-chip Flow (On-chip Biotechnologies Co., Ltd, Tokyo, Japan). The results are presented as a mean and standard deviation obtained from 3 samples.
# [4] = Circular dichroism, R value of secondary structure; format: physicochemical; details: CD, peptide 24 µM
# Protocol: The conformations of peptides were analyzed by circular dichroism (CD) in pH 7.3 4-(2-hydroxyethyl)-1-piperazineethanesulfonic acid (HEPES) buffer (Fig. 3a), 40% 2,2,2-trifluoroethanol (TFE)/pH 7.3 HEPES buffer (Fig. 3b), and 75% TFE/pH 7.3 HEPES buffer (Fig. 3c). Negative maxima at 205–209 nm (π → π*) and 222–225 nm (n → π*) were diagnostic of a right-handed (P) helical structure[31]–[33]. The ratio of R (θπ → π*/θn → π*) has been used as a parameter to distinguish an α-helical structure from a 3_10-helical structure (i.e., R ≈ 1: α-helix; R < 0.4: 3_10-helix) (Table S1)[34],[35]. Helical content (helicity) of peptides was estimated from the intensity of θn → π* values. A negative maximum at 195–200 nm (π → π*) and a weak positive maximum at 217 nm (n → π*) were diagnostic of a random coil structure. […] By adding TFE to HEPES buffer, (αMe)Leu peptide formed a complete right-handed (P) helical structure in a mixture of α- and 3_10-helices (R = 0.57 and 0.56 in Figs 3b and […], respectively). The dominant structures of Ac5c and Leu peptides changed by increased the rate of TFE to eventually be α-/3_10-helices (R = 0.52) and 3_10-helix (R = 0.30), respectively (Fig. 3c). […] Cbz-[L-Leu-L-Leu-(S,S)-Ac5c^dOM]3-OMe was reported to form a right-handed (P) helical structure in 50% TFE/H2O[37]. L-Leu might contribute to stabilization of the peptide helical secondary structure as well as (S,S)-Ac5c^dOM. Destabilization of the peptide helical secondary structure by L-Arg might be stronger than stabilization of it by (S,S)-Ac5c^dOM. Taken together with the results of CD spectra (Fig. 3), in which helicity of peptides was estimated from the intensity of θn → π* values, stability in the helicity of the peptides in the current study was as follows: (αMe)Leupeptide>Ac5cpeptide≈Leupeptide>Ac5c^dOMpeptide≈Argpeptide.
# Figure 3 CD spectra of peptides in (a) HEPES buffer, (b) 40% TFE/HEPES buffer, and (c) 75% TFE/HEPES buffer. Peptide concentration: 24 µM.
# Optical rotation [α]^rtD was measured using a Jasco DIP-370 polarimeter (JASCO, Tokyo, Japan) using a 0.5 dm cell. Infrared (IR) spectra were recorded using a Shimadzu IR Affinity-1 spectrometer (Shimadzu Corporation, Kyoto, Japan) for conventional measurement (KBr). CD spectra were recorded using a Jasco J-720W spectropolarimeter (JASCO) with a 1.0 mm path length cell. ^1H NMR (400 MHz) and ^13C NMR (100 MHz) spectra were determined using a JEOL AL 400 spectrometer (JEOL Ltd, Tokyo, Japan). Fast atom bombardment (FAB)-MS was measured using a JEOL JMS-700N (JEOL). MALDI-TOF-MS spectra were recorded using a Bruker Ultrax spectrometer (Bruker Daltonics, Fermont, CA). Piperidine was purchased from Tokyo Chemical Industry Co., Ltd. (Tokyo, Japan). Fmoc-L-Arg(Pbf)-OH, Fmoc-Gly-OH, Fmoc-L-Leu-OH, and CLEAR-Amide resin were purchased from the Peptide Institute., Inc. (Osaka, Japan). Fmoc-(S)-(αMe)Leu-OH was obtained from Nagase & Co., Ltd. (Kyoto, Japan). Fmoc-Ac5c-OH was purchased from Watanabe Chemical Industries, Ltd. (Hiroshima, Japan). HATU, HBTU, HOAt, and HOBt were from AAPPTec (Louisville, KY). COMU was from Novabiochem (Tokyo, Japan). CF and Dulbecco’s modified Eagle’s medium (DMEM) were obtained from Sigma-Aldrich Co. (St. Louis, MO). diisopropylethylamine (DIPEA) and heparin were purchased from Wako Pure Chemicals Co., Inc. (Osaka, Japan). Diethyl ether was from Kanto Chemical Co., Inc. (Tokyo, Japan). Trifluoroacetic acid (TFA) was obtained from Nacalai Tesque, Co., Inc. (Kyoto, Japan). Hoechst 33342 and a Cell counting kit-8 were purchased from Dojindo Laboratories (Kumamoto, Japan). LysoTracker Red was from Molecular Probes (Eugene, OR).
# Table S1. R values (qπ → π*/qn → π*) of synthetic peptides.
# R value (qπ → π*/qn → π* )
# HEPES 40% TFE/HEPES 75% TFE/HEPES
# [5] = tested on: HeLa cells; details: 24 h incubation; cited from earlier work
# Protocol: Cellular uptake of peptides was assessed against HeLa (Fig. 5a) and CHO-K1 cells (Fig. 5b) at a concentration of 1 µM and various incubation times (2, 6, and 24 h). […] Furthermore, the cellular uptake of Ac5c^dOM peptide increased up t ...
Molecule,"remaining at 4 h, 10 µM [1]","remaining at 4 h, 10 µM [2]","cellular uptake, course over incubation time [3]",R value (θπ → π*/θn → π*) ([4]; 40% TFE/pH 7.3 HEPES buffer),R value (θπ → π*/θn → π*) ([4]; 75% TFE/pH 7.3 HEPES buffer),"R value (θπ → π*/θn → π*) ([4]; pH 7.3 HEPES buffer, R ≈ 1 α-helix, R < 0.4 3_10-helix)",cell-penetrating ability compared with Arg nonapeptide [5]
CC(C)C[C@H](NC(=O)[C@H](CCCNC(=N)N)NC(=O)[C@H](CCCNC(=N)N)NC(=O)[C@H](CC(C)C)NC(=O)[C@H](CCCNC(=N)N)NC(=O)[C@H](CCCNC(=N)N)NC(=O)[C@H](CC(C)C)NC(=O)[C@H](CCCNC(=N)N)NC(=O)[C@H](CCCNC(=N)N)NC(=O)CNC(=O)c1ccc2c(c1)C(=O)OC21c2ccc(O)cc2Oc2cc(O)ccc21)C(N)=O [Leu peptide] (5FAM-GRRLRRLRRL-NH2),0%,0%,small decrease,0.26,0.30,No significant maxima,–
(L-Arg-L-Arg-Aib)3 [(L-Arg-L-Arg-Aib)3 nonapeptide],–,–,–,–,–,–,much lower cell-penetrating ability than Arg nonapeptide
